Assays:
Format in all cases: in vivo
Veronica persica (VERPE) [1] = experiment: Herbicidal post-emergence action (B), 1280 g/ha
Excerpt: (§1) ABUTH: Abutilon theophrasti AGSTE: Agrostis tenuis ALOMY: Alopecurus myosuroides AMARE Amaranthus retroflexus DIGSA: Digitaria sanguinalis ECHCG: Echinochloa crus-galli KCHSC: Kochia scoparia LOLRI: Lolium rigidum MATIN: Matricaria inodora POAAN: Poa annua POLCO: Polygonum convolvulus SETVI: Setaria viridis STEME: Stellaria media VERPE: Veronica persica VIOTR: Viola tricolor
(§2) Seeds of mono- and dicotyledonous weed plants were placed in plastic pots in sandy loam soil (doubly sown with in each case one species of mono- or dicotyledonous weed plants per pot), covered with soil and cultivated in a greenhouse under controlled growth conditions. 2 to 3 weeks after sowing, the test plants were treated at the one-leaf stage. The compounds of the invention, formulated in the form of wettable powders (WP) or as emulsion concentrates (EC), were applied onto the green parts of the plants as aqueous suspension or emulsion with addition of 0.5% additive at a water application rate of 600 liters per hectare (converted). After the test plants had been kept in the greenhouse under optimum growth conditions for about 3 weeks, the activity of the preparations was rated visually in comparison to untreated controls. For example, 100% activity=the plants have died, 0% activity=like control plants.
(§3) Tables B1 to B12, below, show the effects of selected compounds of the general formula (I) according to table 1 on various harmful plants and an application rate corresponding to 1280 g/ha obtained by the experimental procedure mentioned above.

[2] = test system: Kochia scoparia (KCHSC; Bassia scoparia); experiment: Herbicidal post-emergence action (B), 1280 g/ha
Excerpt: as §1, §2, §3

[3] = test system: Amaranthus retroflexus (AMARE); experiment: Herbicidal post-emergence action (B), 1280 g/ha; conditions: rated visually after about 3 weeks vs untreated controls
Excerpt: as §1, §2, §3

Poa annua (POAAN) [4] = experiment: Herbicidal pre-emergence action (A), 1280 g/ha; conditions: visual grading after ca. 3 weeks vs untreated controls, 100% = plants have died off, 0% = as control plants
Excerpt: as §1
(§4) Seeds of mono- and dicotyledonous weed plants were sown in plastic pots (double sowings with one species of mono- and one species of dicotyledonous weed plants per pot), in sandy loam, and covered with soil. The compounds according to the invention, formulated in the form of wettable powders (WP) or as emulsifiable concentrates (EC), were applied to the surface of the covering soil as aqueous suspension or emulsion, with the addition of 0.5% of an additive, at an application rate of 600 l of water per hectare (converted). Following treatment, the pots were placed in a greenhouse and kept under optimum growth conditions for the test plants. The visual grading of the damage to the test plants was carried out after ca. 3 weeks in comparison to untreated controls (herbicidal effect in percent (%): 100% effect=plants have died off, 0% effect=as control plants).
(§5) Tables A1 to A12, below, show the effects of selected compounds of the general formula (I) according to table 1 on various harmful plants and an application rate corresponding to 1280 g/ha obtained by the experimental procedure mentioned above.

Stellaria media (STEME) [5] = experiment: Herbicidal pre-emergence action (A), 1280 g/ha; conditions: visual grading after ca. 3 weeks vs untreated controls
Excerpt: as §1, §4, §5

[6] = test system: Amaranthus retroflexus (AMARE); experiment: Herbicidal pre-emergence action (A), 1280 g/ha; conditions: visual grading after ca. 3 weeks vs untreated controls
Excerpt: as §1, §4, §5

Stellaria media (STEME) [7] = experiment: Herbicidal post-emergence action (B), 1280 g/ha
Excerpt: as §1, §2, §3

[8] = test system: Matricaria inodora (MATIN); experiment: Herbicidal pre-emergence action (A), 1280 g/ha; conditions: visual grading after ca. 3 weeks vs untreated controls
Excerpt: as §1, §4, §5

[9] = test system: Kochia scoparia (KCHSC; Bassia scoparia); experiment: Herbicidal pre-emergence action (A), 1280 g/ha; conditions: visual grading after ca. 3 weeks vs untreated controls
Excerpt: as §1, §4, §5

Setaria viridis (SETVI) = experiment: Herbicidal pre-emergence action (A), 1280 g/ha; conditions: visual grading after ca. 3 weeks vs untreated controls
Excerpt: as §1, §4, §5

Veronica persica (VERPE) [10] = experiment: Herbicidal pre-emergence action (A), 1280 g/ha; conditions: visual grading after ca. 3 weeks vs untreated controls
Excerpt: as §1, §4, §5

[11] = test system: Digitaria sanguinalis (DIGSA); experiment: Herbicidal pre-emergence action (A), 1280 g/ha; conditions: visual grading after ca. 3 weeks vs untreated controls, 100% = plants have died off, 0% = as control plants
Excerpt: as §1, §4, §5

[12] = test system: Echinochloa crus-galli (ECHCG); experiment: Herbicidal pre-emergence action (A), 1280 g/ha; conditions: visual grading after ca. 3 weeks vs untreated controls, 100% = plants have died off, 0% = as control plants
Excerpt: as §1, §4, §5

Poa annua (POAAN) [13] = experiment: Herbicidal post-emergence action (B), 1280 g/ha; conditions: rated visually after about 3 weeks vs untreated controls
Excerpt: as §1, §2, §3

Lolium rigidum (LOLRI) = experiment: Herbicidal pre-emergence action (A), 1280 g/ha; conditions: visual grading after ca. 3 weeks vs untreated controls, 100% = plants have died off, 0% = as control plants
Excerpt: as §1, §4, §5

[14] = test system: Alopecurus myosuroides (ALOMY); experiment: Herbicidal pre-emergence action (A), 1280 g/ha; conditions: visual grading after ca. 3 weeks vs untreated controls, 100% = plants have died off, 0% = as control plants
Excerpt: as §1, §4, §5

Row | SMILES | herbicidal effect VERPE (Veronica persica (VERPE) [1]) [%] | herbicidal activity AMARE [3] [%] | POAAN, herbicidal effect in percent (%) (Poa annua (POAAN) [4]) | herbicidal effect STEME (Stellaria media (STEME) [5]) [%] | herbicidal effect SETVI (Setaria viridis (SETVI)) [%] | further results
1 | NC(=O)c1nc2nc(-c3ccccc3F)c(Br)cc2s1 [Example I-154, 6-bromo-5-(2-fluorophenyl)thiazolo[4,5-b]pyridine-2-carboxamide] | 100 | 90 | 90 | 90 |  | herbicidal effect KCHSC [2]: 90%; herbicidal effect AMARE [6]: 90%
2 | Cc1cc2sc(Cc3ccccc3F)nc2nc1-c1ccccc1F [Example I-073] |  |  | 100 | 90 |  | 
3 | Cc1nc2nc(-c3ccccc3F)ccc2s1 [Example I-019] |  |  |  | 90 |  | herbicidal effect STEME (Stellaria media (STEME) [7]): 90%
4 | Cc1cnsc1-c1nc2nc(S)sc2cc1Br [Example I-208] | 90 | 100 |  |  |  | 
5 | Cc1nc2nc(-c3cc(Br)sc3C)c(Br)cc2s1 [Example I-142] |  |  | 100 |  |  | herbicidal effect MATIN [8]: 100%
6 | COc1nc2nc(-c3ccccc3)c(C)cc2s1 [Example I-006] | 90 | 90 |  |  |  | 
7 | Cc1cc(-c2nc3ncsc3cc2C)c(C)s1 [Example I-197] | 90 |  | 100 |  | 100 | herbicidal effect KCHSC [9]: 90%; herbicidal effect AMARE [6]: 90%
8 | CCc1cc2sc(OC)nc2nc1-c1ccccc1OC [Example I-097] | 100 |  |  |  | 100 | herbicidal effect STEME (Stellaria media (STEME) [7]): 100%
9 | CCc1cc2sc(SC)nc2nc1-c1ccccc1C [Example I-106] |  |  |  | 100 | 100 | 
10 | Cc1cc2sc([S+](C)[O-])nc2nc1-c1ccccc1Cl (stereo not drawn) [Example I-024] |  |  |  | 100 |  | herbicidal effect KCHSC [2]: 90%; herbicidal effect VERPE (Veronica persica (VERPE) [10]): 90%; herbicidal effect KCHSC [9]: 100%
11 | Cc1cc2sc([S+](C)[O-])nc2nc1-c1cccc(F)c1 (stereo not drawn) [Example I-039] |  |  |  |  |  | herbicidal effect KCHSC [2]: 90%; herbicidal effect STEME (Stellaria media (STEME) [7]): 90%
12 | CCc1cc2sc(S)nc2nc1C1=CCCCC1 [Example I-176] | 90 |  |  | 90 | 100 | herbicidal effect KCHSC [2]: 90%; DIGSA, herbicidal effect in percent (%) [11]: 90%; herbicidal effect KCHSC [9]: 90%
13 | Cc1cnsc1-c1nc2ncsc2cc1Br [Example I-202] |  |  |  | 100 |  | 
14 | Cc1nc2nc(-c3ccccc3)c(C)cc2s1 [Example I-115] |  |  | 100 | 100 | 100 | ECHCG, herbicidal effect in percent (%) [12]: 100%; herbicidal effect MATIN [8]: 90%
15 | CCc1cc2sc(S)nc2nc1-c1ccccc1 [Example I-162] | 100 | 90 |  | 90 |  | herbicidal effect KCHSC [2]: 90%; herbicidal effect VERPE (Veronica persica (VERPE) [10]): 90%
16 | COc1ccccc1-c1nc2nc(S)sc2cc1C [Example I-164] | 90 |  | 100 |  | 100 | herbicidal effect KCHSC [9]: 90%
17 | Cc1sc(Br)cc1-c1nc2ncsc2cc1Br [Example I-138] | 90 |  | 100 | 90 | 90 | herbicidal activity POAAN (Poa annua (POAAN) [13]): 90%; LOLRI, herbicidal effect in percent (%) (Lolium rigidum (LOLRI)): 90%
18 | Fc1ccccc1-c1nc2nc(S)sc2cc1Br [Example I-156, 6-bromo-5-(2-fluorophenyl)thiazolo[4,5-b]pyridine-2-thiol] |  | 100 |  | 90 |  | 

Row | SMILES | herbicidal effect VERPE (Veronica persica (VERPE) [1]) [%] | herbicidal activity AMARE [3] [%] | POAAN, herbicidal effect in percent (%) (Poa annua (POAAN) [4]) | herbicidal effect STEME (Stellaria media (STEME) [5]) [%] | herbicidal effect SETVI (Setaria viridis (SETVI)) [%] | further results
19 | Cc1scc(-c2ccc3scnc3n2)c1C [Example I-201] |  |  |  | 100 | 90 | herbicidal effect STEME (Stellaria media (STEME) [7]): 90%; ECHCG, herbicidal effect in percent (%) [12]: 100%; herbicidal effect KCHSC [9]: 90%
20 | CCc1cc2sc(S(C)(=O)=O)nc2nc1-c1ccccc1C [Example I-061] |  |  |  | 90 |  | herbicidal effect KCHSC [2]: 90%; herbicidal effect VERPE (Veronica persica (VERPE) [10]): 90%; herbicidal effect AMARE [6]: 90%
21 | C=CCNC(=O)CNc1nc2nc(-c3ccccc3F)c(Br)cc2s1 [Example I-067] |  | 90 |  |  |  | 
22 | Cc1cc2scnc2nc1-c1scnc1C [Example I-203] |  | 90 |  | 90 | 100 | herbicidal effect STEME (Stellaria media (STEME) [7]): 90%; ECHCG, herbicidal effect in percent (%) [12]: 100%; herbicidal effect AMARE [6]: 90%
23 | CCc1cc2sc([S+](C)[O-])nc2nc1-c1ccccc1 (stereo not drawn) [Example I-050] | 90 | 90 | 100 | 90 |  | ECHCG, herbicidal effect in percent (%) [12]: 100%; herbicidal effect KCHSC [9]: 90%; herbicidal effect MATIN [8]: 90%; LOLRI, herbicidal effect in percent (%) (Lolium rigidum (LOLRI)): 90%; herbicidal effect AMARE [6]: 90%
24 | O=C(O)CNc1nc2nc(-c3ccccc3F)c(Br)cc2s1 [Example I-052] |  | 100 |  |  |  | 
25 | Cc1cc2sc(Cc3ccccc3F)nc2nc1-c1ccccc1 [Example I-056] |  | 100 | 100 | 100 |  | herbicidal activity POAAN (Poa annua (POAAN) [13]): 100%
26 | CSc1nc2nc(-c3ccccc3C)c(C)cc2s1 [Example I-043] | 90 | 100 |  |  | 90 | herbicidal effect KCHSC [2]: 90%; DIGSA, herbicidal effect in percent (%) [11]: 90%; herbicidal effect VERPE (Veronica persica (VERPE) [10]): 100%; herbicidal effect KCHSC [9]: 90%; herbicidal effect AMARE [6]: 90%
27 | Cc1cc2sc(S)nc2nc1C1=CCCCC1 [Example I-174] |  |  | 100 |  |  | herbicidal effect AMARE [6]: 100%
28 | Cc1nc2nc(-c3ccccc3Cl)c(C)cc2s1 [Example I-103] |  |  | 90 | 100 | 90 | DIGSA, herbicidal effect in percent (%) [11]: 90%; ECHCG, herbicidal effect in percent (%) [12]: 90%
29 | CCOc1nc2nc(-c3ccccc3F)c(Br)cc2s1 [Example I-101] | 90 |  |  |  |  | 
30 | Cc1ncsc1-c1nc2ncsc2cc1Br [Example I-204] | 90 |  | 90 | 90 | 100 | ECHCG, herbicidal effect in percent (%) [12]: 90%; herbicidal effect AMARE [6]: 90%
31 | Cc1nc2nc(-c3ccc(F)cc3)c(C)cc2s1 [Example I-090] |  | 100 |  |  |  | herbicidal effect STEME (Stellaria media (STEME) [7]): 90%
32 | Cc1ncsc1-c1nc2nc(S)sc2cc1Br [Example I-209] | 90 | 90 |  |  |  | 
33 | Cc1cc2scnc2nc1-c1c(C)sc(C)c1C [Example I-199] |  | 100 |  | 100 |  | herbicidal effect MATIN [8]: 90%
34 | Cc1ncccc1-c1nc2ncsc2cc1Br [Example I-129] |  |  | 100 |  | 100 | ALOMY, herbicidal effect in percent (%) [14]: 90%; herbicidal effect KCHSC [9]: 90%; LOLRI, herbicidal effect in percent (%) (Lolium rigidum (LOLRI)): 90%; herbicidal effect AMARE [6]: 90%
35 | Cc1cc2sc(S(C)(=O)=O)nc2nc1-c1ccccc1 [Example I-080] | 90 |  | 100 | 100 |  | 
